Experimental findings from ChEMBL document CHEMBL5528031, “Synthesis and antitumor activity of cyclopentane-fused anthraquinone derivatives” (Eur J Med Chem, 2024) are described below.

In brackets after ≈: the same amount, converted by molar mass. Activity calls are given as the source filed them. No cut-off for these calls is given here.

The subject of one data set is CAPAN-1. The data set can be described thus: Antiproliferative activity against human CAPAN-1 cells assessed as inhibition of cell growth incubated for 72 hrs by MTT assay. The format is functional, cell-based. Conditions: CAPAN-1, 72 h.
The subject of data set [1] is HCT-116. Briefly: Antiproliferative activity against human HCT-116 cells assessed as inhibition of cell growth incubated for 72 hrs by MTT assay. The format is functional, cell-based. Conditions: HCT-116, 72 h.
For another data set, the system named is LN-229. The data set can be described thus: Antiproliferative activity against human LN-229 cells assessed as inhibition of cell growth incubated for 72 hrs by MTT assay. Conditions: LN-229, 72 h. The format is functional, cell-based.
In another data set the test system is NCI-H1975. Briefly: Antiproliferative activity against human NCI-H1975 cells assessed as inhibition of cell growth incubated for 72 hrs by MTT assay. The following applies: NCI-H1975, 72 h. Type of data set: functional, cell-based.
The test system of another data set is Z-138. The data set can be described thus: Antiproliferative activity against human Z138 cells assessed as inhibition of cell growth incubated for 72 hrs by MTT assay. Type of data set: functional, cell-based. The following applies: Z-138, 72 h.
The nature of data set [2]: Antiproliferative activity against human DND41 cells assessed as inhibition of cell growth incubated for 72 hrs by MTT assay. The format is functional, cell-based. The following applies: DND41, 72 h.
Another data set has as its system HL-60. Briefly: Antiproliferative activity against human HL-60 cells assessed as inhibition of cell growth incubated for 72 hrs by MTT assay. Type of data set: functional, cell-based. The following applies: HL-60, 72 h.
In the next data set the test system is K562. The data set can be described thus: Antiproliferative activity against human K562 cells assessed as inhibition of cell growth incubated for 72 hrs by MTT assay. Type of data set: functional, cell-based. Conditions: K562, 72 h.
A short description of data set [3]: Antiproliferative activity against multidrug resistant human K562/4 cells expressing P-gp assessed as inhibition of cell growth incubated for 72 hrs by MTT assay. Type of data set: functional, cell-based. The following applies: K562/4, 72 h.
Data set [4] in a line: Cytotoxicity against hFB-hTERT6 cells assessed as inhibition of cell growth incubated for 72 hrs by MTT assay. The format is toxicity, cell-based. Conditions: human.
A short description of data set [5]: Solubility of compound in deionized water at pH 6. Type of data set: physicochemical.
A short description of data set [6]: Octanol/water partition coefficient, logP of compound at pH 7.4 by HPLC analysis. Type of data set: physicochemical.
Data set [7] deals with Calf thymus DNA. Briefly: Binding affinity to calf thymus DNA assessed as binding constant at 10 uM by fluorescence spectroscopy analysis. The format is nucleic-acid assay. Conditions: Bos taurus.
For data set [8], the system named is Calf thymus DNA. Briefly: Binding affinity to calf thymus DNA assessed as dissociation constant at 10 uM by fluorescence spectroscopy analysis. Type of data set: nucleic-acid assay, Bos taurus.
Data set [9] has as its system DNA. Briefly: Binding affinity to pBR322 plasmid DNA (unknown origin) assessed as DNA intercalation by measuring reduction in electrophoretic shift incubated for 30 mins by EtBr staining based agarose gel electrophoresis. Type of data set: nucleic-acid assay. Conditions: dose 5-20 µM.
Data set [10] concerns the target T1, DNA topoisomerase 1 (Homo sapiens) (UniProt P11387).
T1 sequence (whole entry): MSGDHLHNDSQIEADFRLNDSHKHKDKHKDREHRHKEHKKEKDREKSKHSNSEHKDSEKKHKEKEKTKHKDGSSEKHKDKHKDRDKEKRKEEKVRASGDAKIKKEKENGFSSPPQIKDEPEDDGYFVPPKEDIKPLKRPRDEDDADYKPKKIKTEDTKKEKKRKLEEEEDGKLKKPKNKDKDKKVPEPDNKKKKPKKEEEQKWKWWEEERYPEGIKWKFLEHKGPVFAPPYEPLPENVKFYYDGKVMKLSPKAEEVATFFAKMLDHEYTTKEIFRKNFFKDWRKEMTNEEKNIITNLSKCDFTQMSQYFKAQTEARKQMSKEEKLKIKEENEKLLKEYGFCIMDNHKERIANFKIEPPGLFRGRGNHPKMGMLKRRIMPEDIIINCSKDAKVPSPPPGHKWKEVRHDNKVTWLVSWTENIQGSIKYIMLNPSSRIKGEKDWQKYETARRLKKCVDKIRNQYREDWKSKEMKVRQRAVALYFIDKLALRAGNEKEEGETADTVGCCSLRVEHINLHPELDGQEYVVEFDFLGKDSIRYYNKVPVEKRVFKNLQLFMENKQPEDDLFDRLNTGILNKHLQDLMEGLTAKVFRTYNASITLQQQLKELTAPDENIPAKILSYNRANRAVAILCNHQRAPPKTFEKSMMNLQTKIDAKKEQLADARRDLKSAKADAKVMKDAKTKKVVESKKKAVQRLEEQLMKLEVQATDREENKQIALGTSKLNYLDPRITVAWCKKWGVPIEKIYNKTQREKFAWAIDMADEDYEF
The data set can be described thus: Inhibition of topoisomerase 1 (unknown origin) assessed as reduction in unwinding of supercoiled pBR322 plasmid DNA by measuring reduction in electrophoretic mobility at 5 to 20 uM incubated for 30 mins by EtBr staining based agarose gel electrophoresis. Conditions: dose 5-20 µM.

Data set [11] can be described thus: Drug uptake in human HCT-116 cells assessed as increase in intracellular accumulation at 2 uM measured after 5 mins by Hoechst 33342 staining based fluorescence confocal microscopic analysis. The format is ADME, cell-based. Conditions: hct-116, 5 min.
The nature of data set [12]: Drug uptake in hFB-hTERT6 cells. Conditions: human. Type of data set: ADME, cell-based.
Data set [13] can be described thus: Drug uptake in human HCT-116 cells assessed as increase in intracellular accumulation at 2 uM measured after 24 hrs by flow cytometry analysis. Type of data set: ADME, cell-based. Conditions: hct-116, 24 h.
Data set [14] is described as follows: Drug localization in lysosome of human HCT-116 cells assessed as appearance of yellow color at 2 uM incubated for 9 hrs by LysoTracker Green staining based fluorescence microscopic analysis. The format is ADME, subcellular. Conditions: hct-116, 9 h.
A short description of data set [15]: Drug localization in mitochondria of human HCT-116 cells assessed as appearance of yellow color at 2 uM incubated for 9 hrs by MitoTracker deep red staining based fluorescence microscopic analysis. The format is ADME. The following applies: hct-116, 9 h.
In data set [16] the test system is HCT-116. Briefly: Induction of oxidative stress in human HCT-116 cells assessed as increase in ROS-positive cells at 10 uM incubated for 2 hrs by Abcam-ROS deep red staining based fluorescence microscopic analysis. The format is functional, cell-based.
Data set [17] deals with HCT-116. The data set can be described thus: Induction of oxidative stress in human HCT-116 cells assessed as increase in ROS-positive cells at 10 uM incubated for 2 hrs by flow cytometry analysis. Type of data set: functional, cell-based.
The subject of data set [18] is DNA. Briefly: Binding affinity to pBR322 plasmid DNA (unknown origin) assessed as DNA intercalation by measuring reduction in electrophoretic shift at 5 to 20 uM incubated for 30 mins by EtBr staining based agarose gel electrophoresis. Conditions: dose 5-20 µM. The format is nucleic-acid assay.
Data set [19] deals with T1, DNA topoisomerase 1 (Homo sapiens). The data set can be described thus: Inhibition of topoisomerase 1 (unknown origin) assessed as reduction in unwinding of supercoiled pBR322 plasmid DNA by measuring reduction in electrophoretic mobility at 20 uM incubated for 30 mins by EtBr staining based agarose gel electrophoresis.
Data set [20] is described as follows: Drug uptake in human HCT-116 cells assessed as increase in intracellular accumulation at 2 uM measured after 24 hrs by Hoechst 33342 staining based fluorescence confocal microscopic analysis. Conditions: hct-116, 24 h. The format is ADME, cell-based.
A short description of data set [21]: Drug localization in nucleus of human HCT-116 cells assessed as appearance of magenta color at 2 uM incubated for 24 hrs by Hoechst 33342 staining based fluorescence microscopic analysis. The following applies: hct-116, 24 h. The format is ADME, subcellular.
The nature of data set [22]: Drug localization in lysosome of human HCT-116 cells assessed as appearance of yellow color at 2 uM incubated for 24 hrs by LysoTracker Green staining based fluorescence microscopic analysis. The format is ADME, subcellular. The following applies: hct-116, 24 h.
A short description of data set [23]: Drug localization in mitochondria of human HCT-116 cells assessed as appearance of yellow color at 2 uM incubated for 24 hrs by MitoTracker deep red staining based fluorescence microscopic analysis. The format is ADME. Conditions: hct-116, 24 h.

As to `N[C@H]1CCN(C(=O)C2Cc3c(O)c4c(c(O)c3C2)C(=O)c2ccccc2C4=O)C1`, the IC50 with CAPAN-1 stood at 1 µM; with HCT-116 [1], 1.9 µM; with LN-229, 0.7 µM; in the data set with NCI-H1975 it was 2.3 µM; in the data set on Z-138 it was 2.5 µM; in data set [2], 2.4 µM. In addition, the concentration for half-maximal inhibition (IC50) with HL-60 amounted to 2.1 µM; in the data set on K562, 1.9 µM; in data set [3] it was 1.9 µM. Besides, the IC50 at 72 h in [4] was found to be 4.2 µM. The same molecule showed a solubility in data set [5] of 55 mg/mL (≈ 140 mM). This molecule displayed a pH-dependent lipophilicity (logD) in data set [6] of 1.56. The Kb with Calf thymus DNA [7] is 0.35 10^6/M. Besides, the Kd in the data set with Calf thymus DNA [8] came to 2.9 µM. For the same molecule, the Activity result in the data set with DNA [9] was “Dose-Dependent Effect”. Also, the inhibition entry in data set [10] is “Active”. For the same molecule, the Drug uptake result in [11] was “Active”; in data set [12] it was “Active”; in data set [13], “Active”; in data set [14], “Active”; in data set [15], “Not Active”. The result in the data set on HCT-116 [16] and in the data set on HCT-116 [17] was Active.

As to `Cc1oc2c(O)c3c(c(O)c2c1C(=O)N1CC[C@H](N)C1)C(=O)c1ccccc1C3=O`, the result in the data set on DNA [18] was inactive. In data set [19], the inhibition result was “Active”.

As to `COc1cccc2c1C(=O)c1c(O)c3c(c(O)c1C2=O)C[C@@](O)(C(=O)CO)C[C@@H]3O[C@H]1C[C@H](N)[C@H](O)[C@H](C)O1` [DOXORUBICIN], the IC50 was determined as 1.71 µM in the data set with CAPAN-1; 0.3 µM with HCT-116 [1]; 1.82 µM with LN-229; 0.62 µM with NCI-H1975; 1.59 µM in the data set with Z-138; 0.76 µM in data set [2]. The half-inhibitory concentration (IC50) with HL-60 was determined as 0.22 µM; in [3], 4.2 µM. The log distribution coefficient (logD) in data set [6] is 0.3. Moreover, the Kb with Calf thymus DNA [7] is 1.4 10^6/M. Also, the Kd in the data set with Calf thymus DNA [8] came to 0.7 µM. Besides, the outcome with DNA [18] was Active. The Drug uptake entry in data set [20] is “Active”; in data set [12] it was “Active”; in data set [13], “Active”; in data set [21] it was “Active”; in data set [22] it was “Active”; in [23], “Not Active”. Besides, the outcome in the data set with HCT-116 [16] and in the data set with HCT-116 [17] was inactive.
